The record followed here is ChEMBL document CHEMBL1121541, “Novel analogues of enkephalin: indentification of functional groups required for biological activity” (J Med Chem, 1980).

One experiment is filed under the species Cavia porcellus. The experiment can be described thus: Ability to Inhibit amplitude of the electrically stimulated guinea pig ileum by 50%. It is filed as functional, organism-based.
What is called IC50 is the concentration at which inhibition is half-maximal. The low end stands for greater potency in that assay, the high end for weaker potency in that assay. For the compound `N[C@@H](Cc1ccc(O)cc1)C(=O)NCC(=O)NCC(=O)NC1CCc2ccccc21` (some centres undefined), 2600 nM corresponded to half-maximal inhibition (IC50).

The next experiment is filed under the species Cavia porcellus. The experiment can be described thus: Ability to Inhibit amplitude of the electrically stimulated guinea pig ileum by 50%; Inactive at 2.19E-4 concentration. It is filed as functional, organism-based.
On to `NCCc1ccc(O)cc1` [TYRAMINE], for which the 50% inhibitory concentration (IC50) entry is “Not Active”.

A further experiment is filed under the species Cavia porcellus. The experiment can be described thus: Ability to Inhibit amplitude of the electrically stimulated guinea pig ileum by 50%; Inactive at 3.2E-6 concentration. Type of experiment: functional, organism-based.
As for `CC(C)[C@H](NC(=O)CNC(=O)[C@@H](N)Cc1ccc(O)cc1)C(=O)NC1CCc2ccccc21` (some centres undefined), the IC50 result is listed as “Not Active”.

A further experiment is filed under the species Cavia porcellus. As to the kind of experiment: Ability to Inhibit amplitude of the electrically stimulated guinea pig ileum by 50%; Inactive at 2.71E-6. Type of experiment: functional, organism-based.
For the compound `CC(NC(=O)[C@@H](N)Cc1ccc(O)cc1)C(=O)NCC(=O)NC1Cc2ccccc2C1` (stereo in doubt), the 50% inhibitory concentration (IC50) entry is recorded as “Not Active”.

System in the next experiment: not listed separately
As to the kind of experiment: Ratio of IC50 of [D-Ala2, D-Leu5]-enkephalin to that of the compound, in the guinea pig ileum assay. Type of experiment: functional.
As to `C[C@@H](NC(=O)[C@@H](N)Cc1ccc(O)cc1)C(=O)NCC(=O)NC1CCc2ccccc21` (some centres undefined), the Ratio is given as 0.47.

For another experiment, the species on record is Cavia porcellus. As to the kind of experiment: Inhibition of contraction of electrically stimulated guinea pig ileum. It is filed as functional, organism-based.
`C[C@@H](NC(=O)[C@@H](N)Cc1ccc(O)cc1)C(=O)NCC(=O)OCc1ccccc1` came in with an IC50 of 220 nM. Turning to `CN1CC[C@]23c4c5ccc(O)c4O[C@H]2[C@@H](O)C=C[C@H]3[C@H]1C5`, the 50% inhibitory concentration (IC50) worked out at 1.6 nM. Compound `CSCC[C@H](NC(=O)[C@H](Cc1ccccc1)NC(=O)CNC(=O)[C@H](NC(=O)[C@@H](N)Cc1ccc(O)cc1)C(C)C)C(N)=O` came in with an IC50 of 16 nM. Regarding `CC(C)[C@H](NC(=O)[C@@H](N)Cc1ccc(O)cc1)C(=O)NCC(=O)NC1CCc2ccccc21` (some centres undefined), inhibition was half-maximal at 1400 nM (IC50).

`CC(C)[C@H](NC(=O)CNC(=O)[C@@H](N)Cc1ccc(O)cc1)C(=O)NC1CCc2ccccc21` (some centres undefined) gave a half-inhibitory concentration (IC50) of 9030 nM. Consider `CCOC(=O)CC[C@H](N)C(=O)N[C@H](C)C(=O)NCC(=O)N[C@@H](Cc1ccccc1)C(=O)N[C@H](CC(C)C)C(=O)O`, for which the IC50 came out at 7330 nM. Take `C[C@@H](NC(=O)[C@@H](N)Cc1ccc(O)cc1)C(=O)NCC(=O)NC1CCc2ccccc21` (some centres undefined): the IC50 was 40 nM.

In turn, `CC(C)[C@H](NC(=O)[C@](C)(Cc1ccccc1)NC(=O)CNC(=O)[C@@H](C)NC(=O)[C@@H](N)Cc1ccc(O)cc1)C(=O)O` displayed a concentration for half-maximal inhibition (IC50) of 125 nM. Compound `CC(NC(=O)[C@@H](N)Cc1ccc(O)cc1)C(=O)NCC(=O)NCC1CC1` (stereo in doubt) registered an IC50 of 480 nM.

The compound `CC(NC(=O)[C@@H](N)Cc1ccc(O)cc1)C(=O)NCC(=O)N[C@@](C)(Cc1ccccc1)C(=O)O` (stereo in doubt) displayed a concentration for half-maximal inhibition (IC50) of 75 nM. Still for that read-out and setting: the figure for `CC(NC(=O)[C@@H](N)Cc1ccc(O)cc1)C(=O)NCC(=O)NC1Cc2ccccc2C1` (stereo in doubt) is 9010 nM; for `CC(C)CC(NC(=O)[C@H](CC1CCCCC1)NC(=O)CNC(=O)C(C)NC(=O)[C@@H](N)Cc1ccc(O)cc1)C(=O)O` (stereo in doubt) it is 9 nM. In turn, `CC(NC(=O)[C@@H](N)Cc1ccc(O)cc1)C(=O)NCC(=O)NCc1ccccc1` (stereo in doubt) showed an IC50 of 140 nM.

Compound `CC(C)C[C@@H](NC(=O)[C@](C)(Cc1ccccc1)NC(=O)CNC(=O)C(C)NC(=O)[C@@H](N)Cc1ccc(O)cc1)C(=O)O` (stereo in doubt) had an IC50 of 42 nM. For `CC(NC(=O)[C@@H](N)Cc1ccc(O)cc1)C(=O)NCC(=O)O` (stereo in doubt), the midpoint of inhibition, the IC50, lay at 24400 nM. As to `CC(NC(=O)[C@@H](N)Cc1ccc(O)cc1)C(=O)NCC(=O)NCC1CCC1` (stereo in doubt), the concentration for half-maximal inhibition (IC50) is 320 nM.

Compound `CC(NC(=O)[C@@H](N)Cc1ccc(O)cc1)C(=O)NCC(=O)NCCc1ccccc1` (stereo in doubt) showed an IC50 of 98 nM. Still for that read-out and setting: the figure for `CC(C)C[C@@H](NC(=O)[C@H](Cc1ccccc1)NC(=O)CNC(=O)[C@@H](C)NC(=O)[C@@H](N)Cc1ccc(O)cc1)C(=O)O` [DADLE] is 17 nM.

The species entered for a further experiment is Cavia porcellus. The experiment can be described thus: Ability to Inhibit amplitude of the electrically stimulated guinea pig ileum by 50%; Inactive at 1.7E-6 concentration. It is filed as functional, organism-based.
Take `CC(C)C[C@@H](NC(=O)[C@@H](Cc1ccccc1)NC(=O)CNC(=O)C(C)NC(=O)[C@](C)(N)Cc1ccc(O)cc1)C(=O)O` (stereo in doubt): the IC50 result was “Not Active”.
